Measured values: PMC6436327, “Inhibition of Cytochrome P450 Activities by Sophora flavescens Extract and Its Prenylated Flavonoids in Human Liver Microsomes” (Evidence-based Complementary and Alternative Medicine : eCAM, 2019)
Like-named read-outs stand apart in the source and are kept apart here.

Columns and labels:
Type in all cases: biochemical
CYP2D6 = target: T1, CYP2D6 (Homo sapiens, UniProt P10635); experiment: dextromethorphan to dextrorphan, LC-MS/MS; settings: microsomes, read-out: IC50 value / Kushenol A
T1 construct: native enzyme in pooled human liver microsomes, dextromethorphan O-demethylation probe
Description: dextromethorphan to dextrorphan, LC-MS/MS on CYP2D6

CYP1A2 = target: T2, CYP1A2 (Homo sapiens, UniProt P05177); experiment: phenacetin to acetaminophen, LC-MS/MS; settings: microsomes
T2 construct: native enzyme in pooled human liver microsomes, phenacetin O-deethylation probe
T2 sequence (P05177 2-516): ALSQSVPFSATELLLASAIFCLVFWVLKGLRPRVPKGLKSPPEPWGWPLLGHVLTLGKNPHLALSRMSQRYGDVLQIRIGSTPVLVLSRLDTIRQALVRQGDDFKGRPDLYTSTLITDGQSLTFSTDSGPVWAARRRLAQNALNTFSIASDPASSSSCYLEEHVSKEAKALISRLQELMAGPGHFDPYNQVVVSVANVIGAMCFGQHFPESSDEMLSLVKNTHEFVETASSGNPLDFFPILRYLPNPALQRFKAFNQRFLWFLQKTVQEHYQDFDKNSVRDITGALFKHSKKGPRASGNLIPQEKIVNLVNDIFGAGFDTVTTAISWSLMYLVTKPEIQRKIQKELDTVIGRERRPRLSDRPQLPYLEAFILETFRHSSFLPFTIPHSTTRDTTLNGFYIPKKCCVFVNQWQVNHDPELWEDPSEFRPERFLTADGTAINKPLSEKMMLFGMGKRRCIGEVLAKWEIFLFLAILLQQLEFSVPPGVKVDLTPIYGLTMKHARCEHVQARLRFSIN
Description: phenacetin to acetaminophen, LC-MS/MS on CYP1A2

CYP2C8 = target: T3, CYP2C8 (Homo sapiens, UniProt P10632); experiment: rosiglitazone hydroxylation, LC-MS/MS; settings: microsomes
T3 construct: methods text says paclitaxel
T3 sequence (P10632 1-490): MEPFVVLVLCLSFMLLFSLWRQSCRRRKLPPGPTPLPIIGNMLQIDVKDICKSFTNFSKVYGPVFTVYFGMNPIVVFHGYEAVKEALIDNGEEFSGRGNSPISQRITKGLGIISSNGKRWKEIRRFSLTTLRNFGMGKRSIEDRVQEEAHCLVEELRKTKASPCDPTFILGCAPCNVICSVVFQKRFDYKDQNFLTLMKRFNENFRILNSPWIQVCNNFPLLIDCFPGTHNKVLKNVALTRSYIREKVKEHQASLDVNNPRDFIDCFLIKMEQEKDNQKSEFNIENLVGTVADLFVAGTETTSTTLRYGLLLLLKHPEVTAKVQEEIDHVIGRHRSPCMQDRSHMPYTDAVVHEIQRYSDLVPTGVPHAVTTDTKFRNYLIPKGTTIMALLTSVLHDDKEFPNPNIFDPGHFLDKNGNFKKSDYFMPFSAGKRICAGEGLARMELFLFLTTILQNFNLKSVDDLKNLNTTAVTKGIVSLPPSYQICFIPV
Description: rosiglitazone hydroxylation, LC-MS/MS on CYP2C8

CYP2C9 = target: T4, CYP2C9 (Homo sapiens, UniProt P11712); experiment: diclofenac hydroxylation, LC-MS/MS; settings: microsomes
T4 construct: methods text says tolbutamide
Description: diclofenac hydroxylation, LC-MS/MS on CYP2C9

CYP2C19 = target: T5, CYP2C19 (Homo sapiens, UniProt P33261); experiment: S-mephenytoin 4-hydroxylation, LC-MS/MS; settings: microsomes, read-out: IC50 value / Kushenol A
T5 construct: native enzyme in pooled human liver microsomes, S-mephenytoin 4-hydroxylation probe (methods text misprints CYP2C18)
Description: S-mephenytoin 4-hydroxylation, LC-MS/MS on CYP2C19

CYP2B6 = target: T6, CYP2B6 (Homo sapiens, UniProt P20813); experiment: bupropion 6-hydroxylation, LC-MS/MS; settings: microsomes
T6 construct: native enzyme in pooled human liver microsomes, bupropion 6-hydroxylation probe
T6 sequence (P20813 1-491): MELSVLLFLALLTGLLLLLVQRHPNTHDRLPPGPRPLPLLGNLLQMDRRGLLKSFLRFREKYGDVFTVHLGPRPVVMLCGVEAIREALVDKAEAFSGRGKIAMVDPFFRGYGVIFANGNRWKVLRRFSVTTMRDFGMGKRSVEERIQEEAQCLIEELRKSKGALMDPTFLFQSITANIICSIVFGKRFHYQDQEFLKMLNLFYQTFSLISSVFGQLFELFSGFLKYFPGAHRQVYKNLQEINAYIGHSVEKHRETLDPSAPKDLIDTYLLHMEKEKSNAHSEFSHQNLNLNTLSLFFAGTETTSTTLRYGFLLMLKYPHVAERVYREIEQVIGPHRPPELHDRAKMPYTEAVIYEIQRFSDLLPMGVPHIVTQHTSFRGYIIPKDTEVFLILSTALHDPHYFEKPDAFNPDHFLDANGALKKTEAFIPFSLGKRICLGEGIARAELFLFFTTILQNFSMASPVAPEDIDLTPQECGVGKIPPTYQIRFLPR
Description: bupropion 6-hydroxylation, LC-MS/MS on CYP2B6

CYP3A4 [1] = target: T7, CYP3A4 (Homo sapiens, UniProt P08684); experiment: midazolam […]'-hydroxylation, LC-MS/MS; parameters: native enzyme in pooled human liver microsomes, midazolam 1'-hydroxylation probe (CYP3A5 may contribute); settings: microsomes, read-out: IC50 value / Kushenol A
CYP3A4 [2] = target: T7, CYP3A4; experiment: time-dependent inactivation, midazolam […]'-hydroxylation, LC-MS/MS; parameters: recombinant, baculovirus-insect cell expressed, commercial (BD Gentest)
CYP3A4 [3] = target: T7, CYP3A4; experiment: as above; parameters: native enzyme in pooled human liver microsomes, midazolam 1'-hydroxylation probe (CYP3A5 may contribute); settings: microsomes
CYP2A6 = target: T8, CYP2A6 (Homo sapiens, UniProt P11509); experiment: coumarin 7-hydroxylation, LC-MS/MS; settings: human liver microsomes; no preincubation; NADPH-generating system, pH 7.4, 37°C; read-out: IC50 value / Kushenol A
T8 construct: native enzyme in pooled human liver microsomes, coumarin 7-hydroxylation probe
T8 sequence (P11509 1-494): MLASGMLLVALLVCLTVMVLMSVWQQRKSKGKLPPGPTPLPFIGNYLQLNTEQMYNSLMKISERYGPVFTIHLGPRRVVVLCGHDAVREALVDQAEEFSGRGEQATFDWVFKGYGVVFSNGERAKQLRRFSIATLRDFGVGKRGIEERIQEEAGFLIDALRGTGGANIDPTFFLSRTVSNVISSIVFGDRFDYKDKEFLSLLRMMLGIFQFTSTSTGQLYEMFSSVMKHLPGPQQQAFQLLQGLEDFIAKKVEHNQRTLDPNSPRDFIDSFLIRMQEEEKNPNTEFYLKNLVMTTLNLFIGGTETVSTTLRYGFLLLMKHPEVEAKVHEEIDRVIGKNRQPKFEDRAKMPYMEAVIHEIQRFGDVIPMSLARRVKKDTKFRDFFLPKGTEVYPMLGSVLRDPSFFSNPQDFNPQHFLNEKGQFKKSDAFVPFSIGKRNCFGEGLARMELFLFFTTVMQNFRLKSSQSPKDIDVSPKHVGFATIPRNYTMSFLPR
Description: coumarin 7-hydroxylation, LC-MS/MS on CYP2A6

[4] = read-out: IC50 value / Kushenol A
[5] = read-out: IC50 value / Kushenol I
[6] = read-out: IC50 value / Leachianone A
[7] = read-out: IC50 value / Sophoraflavone G
[8] = read-out: IC50 value / Kushenol C

T1 sequence (P10635 whole entry): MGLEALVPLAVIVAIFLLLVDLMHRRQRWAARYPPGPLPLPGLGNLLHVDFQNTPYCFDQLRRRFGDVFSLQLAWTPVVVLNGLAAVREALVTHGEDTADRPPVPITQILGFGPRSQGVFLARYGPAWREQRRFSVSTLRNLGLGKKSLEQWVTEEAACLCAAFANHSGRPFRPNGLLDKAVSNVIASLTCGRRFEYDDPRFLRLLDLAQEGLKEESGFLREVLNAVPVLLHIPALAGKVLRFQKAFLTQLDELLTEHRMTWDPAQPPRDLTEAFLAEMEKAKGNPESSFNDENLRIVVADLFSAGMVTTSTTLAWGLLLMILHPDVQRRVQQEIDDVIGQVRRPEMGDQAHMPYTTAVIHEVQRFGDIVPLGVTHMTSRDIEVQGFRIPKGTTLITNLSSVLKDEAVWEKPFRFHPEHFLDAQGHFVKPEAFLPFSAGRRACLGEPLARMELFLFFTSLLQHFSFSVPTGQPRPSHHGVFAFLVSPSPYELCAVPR
T4 sequence (P11712 whole entry): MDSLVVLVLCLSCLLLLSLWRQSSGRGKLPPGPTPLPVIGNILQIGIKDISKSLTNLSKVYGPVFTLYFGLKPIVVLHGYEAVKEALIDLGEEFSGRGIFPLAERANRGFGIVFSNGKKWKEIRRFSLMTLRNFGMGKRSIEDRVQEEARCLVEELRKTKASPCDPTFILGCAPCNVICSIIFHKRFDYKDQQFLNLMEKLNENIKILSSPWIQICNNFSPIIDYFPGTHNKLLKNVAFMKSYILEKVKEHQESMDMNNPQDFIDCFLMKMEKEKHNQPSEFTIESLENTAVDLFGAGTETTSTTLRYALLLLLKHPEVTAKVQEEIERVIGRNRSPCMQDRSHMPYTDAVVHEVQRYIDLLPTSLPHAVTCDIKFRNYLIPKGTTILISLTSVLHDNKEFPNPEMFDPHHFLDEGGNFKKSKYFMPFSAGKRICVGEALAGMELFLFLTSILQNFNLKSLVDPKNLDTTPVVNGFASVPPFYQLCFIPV
T7 sequence (P08684 2-503): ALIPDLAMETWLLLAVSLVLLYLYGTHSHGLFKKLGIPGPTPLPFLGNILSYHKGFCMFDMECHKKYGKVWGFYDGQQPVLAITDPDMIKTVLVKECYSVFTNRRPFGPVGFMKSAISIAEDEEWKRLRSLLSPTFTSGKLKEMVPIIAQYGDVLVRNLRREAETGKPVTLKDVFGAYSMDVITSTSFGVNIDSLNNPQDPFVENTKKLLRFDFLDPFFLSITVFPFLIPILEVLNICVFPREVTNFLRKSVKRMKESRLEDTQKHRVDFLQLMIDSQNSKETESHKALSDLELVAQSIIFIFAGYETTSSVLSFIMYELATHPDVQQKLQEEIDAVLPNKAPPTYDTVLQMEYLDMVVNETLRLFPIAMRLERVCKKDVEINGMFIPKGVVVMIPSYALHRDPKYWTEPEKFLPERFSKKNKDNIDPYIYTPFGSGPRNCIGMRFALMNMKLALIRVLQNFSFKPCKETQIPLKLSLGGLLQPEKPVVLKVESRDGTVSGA
T5 sequence (P33261 whole entry): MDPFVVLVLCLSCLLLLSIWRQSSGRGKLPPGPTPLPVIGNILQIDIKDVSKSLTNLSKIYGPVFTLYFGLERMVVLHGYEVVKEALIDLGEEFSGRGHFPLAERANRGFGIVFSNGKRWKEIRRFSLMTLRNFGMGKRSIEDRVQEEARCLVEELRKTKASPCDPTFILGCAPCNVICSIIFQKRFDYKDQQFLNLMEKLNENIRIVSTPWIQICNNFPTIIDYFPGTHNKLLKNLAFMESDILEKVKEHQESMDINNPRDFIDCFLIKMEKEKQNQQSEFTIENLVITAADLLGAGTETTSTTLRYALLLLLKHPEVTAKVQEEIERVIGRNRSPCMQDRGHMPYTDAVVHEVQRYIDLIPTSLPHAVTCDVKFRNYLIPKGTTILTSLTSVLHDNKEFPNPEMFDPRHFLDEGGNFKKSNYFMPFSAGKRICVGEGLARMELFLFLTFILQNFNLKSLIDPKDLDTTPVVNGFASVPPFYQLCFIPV

SMILES	IC50 (CYP2D6)	IC50 (CYP1A2; [4])	IC50 (CYP2C8; [4])	IC50 (CYP2C9; [4])	IC50 (CYP2C19)	IC50 (CYP2B6; [4])	IC50 (CYP3A4 [1])	IC50 (CYP2C8; [5])	IC50 (CYP2C9; [5])	KI (inactivation) (CYP3A4 [2])	KI (inactivation) (CYP3A4 [3])	IC50 (CYP2A6)	IC50 (CYP2C8; [6])	IC50 (CYP2B6; [6])	IC50 (CYP1A2; [7])	IC50 (CYP2C8; [7])	IC50 (CYP2C9; [7])	IC50 (CYP2B6; [7])	IC50 (CYP1A2; [8])	IC50 (CYP2C9; [8])
C=C(C)[C@H](CC=C(C)C)Cc1c(O)c(CC=C(C)C)c(O)c2c1O[C@H](c1ccc(O)cc1O)[C@@H](O)C2=O [Kushenol M]	> 50 µM	> 50 µM	> 50 µM	> 50 µM	> 50 µM	> 50 µM	> 50 µM	–	–	–	–	–	–	–	–	–	–	–	–	–
C=C(C)[C@H](CC=C(C)C)Cc1c(O)cc(OC)c2c1O[C@H](c1ccc(O)cc1O)[C@@H](O)C2=O [Kushenol I]	> 50 µM	> 50 µM	–	–	> 50 µM	> 50 µM	> 50 µM	0.67 µM	7.35 µM	0.88 µM	0.24 µM	–	–	–	–	–	–	–	–	–
C=C(C)[C@H](CC=C(C)C)Cc1c(O)cc(O)c2c1O[C@H](c1ccccc1O)CC2=O [Kushenol A]	> 50 µM	> 50 µM	> 50 µM	> 50 µM	> 50 µM	> 50 µM	> 50 µM	–	–	–	–	> 50 µM	–	–	–	–	–	–	–	–
C=C(C)[C@H](CC=C(C)C)Cc1c(O)cc(O)c2c(=O)c(O)c(-c3ccc(O)cc3O)oc12 [Kushenol C]	> 50 µM	–	> 50 µM	–	> 50 µM	> 50 µM	> 50 µM	–	–	–	–	–	–	–	–	–	–	–	5 µM	9.3 µM

Next, values leading:

IC50 (CYP2D6)	IC50 (CYP1A2; [4])	IC50 (CYP2C8; [4])	IC50 (CYP2C9; [4])	IC50 (CYP2C19)	IC50 (CYP2B6; [4])	IC50 (CYP3A4 [1])	IC50 (CYP2C8; [5])	IC50 (CYP2C9; [5])	KI (inactivation) (CYP3A4 [2])	KI (inactivation) (CYP3A4 [3])	IC50 (CYP2A6)	IC50 (CYP2C8; [6])	IC50 (CYP2B6; [6])	IC50 (CYP1A2; [7])	IC50 (CYP2C8; [7])	IC50 (CYP2C9; [7])	IC50 (CYP2B6; [7])	IC50 (CYP1A2; [8])	IC50 (CYP2C9; [8])	SMILES
> 50 µM	> 50 µM	–	> 50 µM	> 50 µM	–	> 50 µM	–	–	–	–	–	0.75 µM	5.74 µM	–	–	–	–	–	–	C=C(C)[C@H](CC=C(C)C)Cc1c(O)cc(O)c2c1O[C@H](c1ccc(O)cc1OC)CC2=O [Leachianone A]
> 50 µM	–	–	–	–	–	> 50 µM	–	–	–	–	> 50 µM	–	–	2.26 µM	0.32 µM	1.25 µM	2.42 µM	–	–	C=C(C)[C@H](CC=C(C)C)Cc1c(O)cc(O)c2c1O[C@H](c1ccc(O)cc1O)CC2=O [Sophoraflavone G]
